PubChem BioAssay AID1918952 (Molecular Pharmacology Branch, DTP, NCI, 2023)

System: LG0703-F948-PDC complex spheroid viability
Assay: Anticancer human tumor LG0703-F948-PDC patient-derived lung adenocarcinoma cell line growth inhibition
Settings: for IC50: curve of first compound; for viability, T/C: stronger effect = lower value
Source text: Multicellular complex tumor spheroid response to LSD1 Inhibitor Iadademstat in combination with a variety of drugs and investigational agents in selected tumor cell lines
The current study was undertaken to assess response to LSD1 inhibitors in combination with standard-of-care drugs and investigational agents in solid tumor complex spheroid models as well as in the K-562 leukemia. Complex spheroids include a stromal component modeled by human endothelial cells (HUVEC) and fibroblasts modeled by human mesenchymal stem cells (MSCs). The concentration ranges selected for each drug and investigational agent were based upon clinically achievable concentrations if the clinical Cmax of the agent was known.
Compounds. The drugs and investigational agents used in this study are listed on Table 1. All of the agents used, including staurosporine (NSC755774) and gemcitabine (NSC613327), were obtained from the Developmental Therapeutics Program, NCI. FDA-approved anticancer drugs are available from the NCI at http://dtp.nci.nih.gov/branches/dscb/oncology_drugset_explanation.html. Drugs and investigational agents were >95% pure by proton nuclear magnetic resonance (NMR) and liquid chromatography/mass spectrometry (LC/MS). Stock solutions were prepared at 400x in DMSO, stored at -70 degrees C, and diluted in fresh medium prior to their use. The final concentration of DMSO in cell culture wells never exceeded 0.25% (v/v). The FDA-approved anticancer drug set is available from the Developmental Therapeutics Program at https://dtp.cancer.gov/organization/dscb/obtaining/available_plates.htm. All drugs and investigational agents were tested over a range starting from a high concentration at or near the clinical Cmax and decreasing in half-log increments. If the clinical Cmax for an agent had not been determined, the highest concentration tested was 10 microM.
Cell Lines. The patient-derived cancer cell (PDC) lines: 292921-168-R-J2-PDC, K24384-001-R-PDC, and 521955-158-R2-J5-PDC pancreatic carcinomas, 556581-035-R-J1 ovarian carcinoma, 324938-238-R-J1-PDC, 855422-203-R-J1-PDC and 883617-216-R-J1-PDC urothelial bladder carcinomas, 743489-274-T-PDC renal cell carcinoma, 138582-R-J1 Merkel cell tumor, K60290-347-R-J1 and K57222-313-R-J1-PDC glioblastomas, 653999-131-R-J2-PDC, LG0703-F948-PDC, and 349418-098-R-PDC non-small cell lung carcinomas, 885512-296-R-J2-PDC, 171881-019-R-J1-PDC breast carcinomas and 186277-243-T-J2-PDC and 233499-124-R-J2-PDC colon carcinomas were obtained from the NCI Patient-Derived Models Repository (PDMR, https://pdmr.cancer.gov). The established cell lines NCI/ADR-RES (RRID:CVCL_14520 and OVCAR-5 (RRID:CVCL_1628) ovarian carcinomas, 786-O (RRID:CVCL_1051) and A498 (RRID:CVCL_A498) renal cell carcinoma, NCI-H211 (ATCC, cat. CRL-5824; RRID:CVCL_1529), NCI-H196 (ATCC, cat. CRL-5823, RRID:CVCL_1509), SW 1271 (ATCC, cat. CRL-2177, RRID:CVCL_1716) and NCI-H1876 (ATCC, cat. CRL-5902, RRID:CVCL_1503) small cell lung carcinomas, MDA-MB-231 (RRID:CVCL_0062) and MDA-MB-468 (RRID:CVCL_0419)breast carcinomas (10-12). Pooled donor human umbilical vein endothelial cells (HUVEC, Lonza, cat. CC-2519) and human mesenchymal stem cells (hMSC, Lonza, cat. PT-2501) were purchased from Lonza (Walkersville, MD).
Cell Culture. All cells were maintained in an incubator at 37 degrees C and 5% CO2 with 95% humidity. The PDC lines were cultured according to standard operating procedures established by the NCI PDMR (https://pdmr.cancer.gov). Briefly all PDCs were thawed and cultured in Matrigel-coated flasks prepared with a working solution of 1X Ham's F-12 nutrient mix, without supplementation (Invitrogen, Waltham, MA, cat. 11765054), 100 U/mL penicillin-streptomycin (Invitrogen, cat. 15140122), and 2.5% Matrigel (Corning Inc., Corning, NY, cat. 354248) for the first three passages. […]

[1] = second compound 0.1 µM, first compound 0.000316 µM
[2] = second compound 0.1 µM, first compound 0.001 µM
[3] = second compound 0.1 µM, first compound 0.00316 µM
[4] = second compound 0.1 µM, first compound 0.01 µM
[5] = second compound 0.1 µM, first compound 0.0316 µM
[6] = second compound 0.1 µM, first compound 0.1 µM
[7] = second compound 0.316 µM, first compound 0.000316 µM
[8] = second compound 0.316 µM, first compound 0.001 µM
[9] = second compound 0.316 µM, first compound 0.00316 µM
[10] = second compound 0.316 µM, first compound 0.01 µM
[11] = second compound 0.316 µM, first compound 0.0316 µM
[12] = second compound 0.316 µM, first compound 0.1 µM
[13] = second compound 1 µM, first compound 0.000316 µM
[14] = second compound 1 µM, first compound 0.001 µM
[15] = second compound 1 µM, first compound 0.00316 µM
[16] = second compound 1 µM, first compound 0.01 µM
[17] = second compound 1 µM, first compound 0.0316 µM
[18] = second compound 1 µM, first compound 0.1 µM
[19] = second compound 3.16 µM, first compound 0.000316 µM
[20] = second compound 3.16 µM, first compound 0.001 µM
[21] = second compound 3.16 µM, first compound 0.00316 µM
[22] = second compound 3.16 µM, first compound 0.01 µM
[23] = second compound 3.16 µM, first compound 0.0316 µM
[24] = second compound 3.16 µM, first compound 0.1 µM
[25] = second compound 10 µM, first compound 0.000316 µM
[26] = second compound 10 µM, first compound 0.001 µM
[27] = second compound 10 µM, first compound 0.00316 µM
[28] = second compound 10 µM, first compound 0.01 µM
[29] = second compound 10 µM, first compound 0.0316 µM
[30] = second compound 10 µM, first compound 0.1 µM
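Further: spheroids exposed to agents for seven days before readout.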
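Wherever viability, T/C is given: 100% = DMSO vehicle control wells as normalization base.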

Compound | IC50 (second compound 0.1 µM) | IC50 (second compound 0.316 µM) | IC50 (second compound 1 µM) | IC50 (second compound 3.16 µM) | IC50 (second compound 10 µM) | viability, T/C [1] | viability, T/C [2] | viability, T/C [3] | viability, T/C [4] | viability, T/C [5] | viability, T/C [6] | viability, T/C [7] | viability, T/C [8] | viability, T/C [9] | viability, T/C [10] | viability, T/C [11] | viability, T/C [12] | viability, T/C [13] | viability, T/C [14] | viability, T/C [15] | further results
CC(C)CC(NC(=O)C(Cc1ccccc1)NC(=O)c1cnccn1)B(O)O (stereo not given) + NC1CC1c1ccc(-c2cccc(O)c2)cc1 | < 0.316 nM | < 0.316 nM | < 0.316 nM | < 0.316 nM | < 0.316 nM | 6.46% | 0.12% | 0.04% | 0.06% | 0.03% | 1.07% | 7.13% | 0.36% | 0.54% | 0.02% | 0.31% | 0.14% | 4.36% | 0.11% | 0.85% | viability, T/C [16]: 0.07%; viability, T/C [17]: 0.95%; viability, T/C [18]: 0.99%; viability, T/C [19]: 4.22%; viability, T/C [20]: 0.74%; viability, T/C [21]: 0.05%; viability, T/C [22]: 0.39%; viability, T/C [23]: 0.09%; viability, T/C [24]: 0.14%; viability, T/C [25]: 1.18%; viability, T/C [26]: 1.11%; viability, T/C [27]: 0.6%; viability, T/C [28]: 1.43%; viability, T/C [29]: 0.9%; viability, T/C [30]: 0.98%
CC(C)CC(NC(=O)CNC(=O)c1cc(Cl)ccc1Cl)B1OC(=O)CC(CC(=O)O)(C(=O)O)O1 (stereo not given) + NC1CC1c1ccc(-c2cccc(O)c2)cc1 | 3.82 nM | 3.08 nM | 2.83 nM | 3.13 nM | 2.58 nM | 91.2% | 102% | 57.3% | 9.87% | 1.39% | 0.35% | 102% | 96.5% | 47.9% | 10.8% | 1.68% | 0.68% | 90.9% | 106% | 44.7% | viability, T/C [16]: 8.76%; viability, T/C [17]: 0.48%; viability, T/C [18]: 0.25%; viability, T/C [19]: 93.9%; viability, T/C [20]: 103%; viability, T/C [21]: 49.6%; viability, T/C [22]: 6.24%; viability, T/C [23]: 0.66%; viability, T/C [24]: 0.21%; viability, T/C [25]: 83.2%; viability, T/C [26]: 96.4%; viability, T/C [27]: 41.5%; viability, T/C [28]: 3.08%; viability, T/C [29]: 0.14%; viability, T/C [30]: 0.2%
